Data published in patent US20230391768A2, “IMIDAZOPYRIDINE DERIVATIVES AND AZA-IMIDAZOPYRIDINE DERIVATIVES AS JANUS KINASE 2 INHIBITORS AND USES THEREOF” (Dana-Farber Cancer Institute, Inc., priority 2018, published 2023).

What was measured:
Experiment in all cases: KINOMEscan
Type in all cases: binding
Details in all cases: read-out: percent of control
DCAMKL2 = DCAMKL2 (Homo sapiens (Human), UniProt Q8N568)
Description: (§1) In vitro profiling of Compound I-2 (1 μM) was performed using the DiscoveRx KINOMEscan® platform.

CDK4-cyclinD3 = CDK4-cyclinD3 (Homo sapiens (Human), UniProt P11802)
CDK4-cyclinD3, sequence (P11802 whole entry): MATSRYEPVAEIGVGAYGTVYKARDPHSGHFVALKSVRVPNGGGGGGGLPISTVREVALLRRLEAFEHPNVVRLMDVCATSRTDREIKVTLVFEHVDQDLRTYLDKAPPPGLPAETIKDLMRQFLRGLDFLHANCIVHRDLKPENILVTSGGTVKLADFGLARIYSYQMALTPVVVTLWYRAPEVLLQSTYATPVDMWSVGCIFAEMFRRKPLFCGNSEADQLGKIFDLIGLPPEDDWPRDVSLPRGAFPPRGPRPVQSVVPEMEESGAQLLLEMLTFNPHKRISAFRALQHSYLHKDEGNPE
CDK4-cyclinD3, sequence (P30281 whole entry partner): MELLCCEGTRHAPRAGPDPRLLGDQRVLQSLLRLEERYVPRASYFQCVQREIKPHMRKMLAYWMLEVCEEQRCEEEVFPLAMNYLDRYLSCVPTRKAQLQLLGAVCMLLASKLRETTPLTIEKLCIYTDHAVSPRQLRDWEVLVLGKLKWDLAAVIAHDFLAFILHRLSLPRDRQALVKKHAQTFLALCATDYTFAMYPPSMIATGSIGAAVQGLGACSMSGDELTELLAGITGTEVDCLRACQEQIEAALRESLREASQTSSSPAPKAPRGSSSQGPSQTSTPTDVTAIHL
Description: as §1

DAPK3 = DAPK3 (Homo sapiens (Human), UniProt O43293)
Description: as §1

MAST1 = MAST1 (Homo sapiens (Human), UniProt Q9Y2H9)
MAST1, sequence (Q9Y2H9 whole entry): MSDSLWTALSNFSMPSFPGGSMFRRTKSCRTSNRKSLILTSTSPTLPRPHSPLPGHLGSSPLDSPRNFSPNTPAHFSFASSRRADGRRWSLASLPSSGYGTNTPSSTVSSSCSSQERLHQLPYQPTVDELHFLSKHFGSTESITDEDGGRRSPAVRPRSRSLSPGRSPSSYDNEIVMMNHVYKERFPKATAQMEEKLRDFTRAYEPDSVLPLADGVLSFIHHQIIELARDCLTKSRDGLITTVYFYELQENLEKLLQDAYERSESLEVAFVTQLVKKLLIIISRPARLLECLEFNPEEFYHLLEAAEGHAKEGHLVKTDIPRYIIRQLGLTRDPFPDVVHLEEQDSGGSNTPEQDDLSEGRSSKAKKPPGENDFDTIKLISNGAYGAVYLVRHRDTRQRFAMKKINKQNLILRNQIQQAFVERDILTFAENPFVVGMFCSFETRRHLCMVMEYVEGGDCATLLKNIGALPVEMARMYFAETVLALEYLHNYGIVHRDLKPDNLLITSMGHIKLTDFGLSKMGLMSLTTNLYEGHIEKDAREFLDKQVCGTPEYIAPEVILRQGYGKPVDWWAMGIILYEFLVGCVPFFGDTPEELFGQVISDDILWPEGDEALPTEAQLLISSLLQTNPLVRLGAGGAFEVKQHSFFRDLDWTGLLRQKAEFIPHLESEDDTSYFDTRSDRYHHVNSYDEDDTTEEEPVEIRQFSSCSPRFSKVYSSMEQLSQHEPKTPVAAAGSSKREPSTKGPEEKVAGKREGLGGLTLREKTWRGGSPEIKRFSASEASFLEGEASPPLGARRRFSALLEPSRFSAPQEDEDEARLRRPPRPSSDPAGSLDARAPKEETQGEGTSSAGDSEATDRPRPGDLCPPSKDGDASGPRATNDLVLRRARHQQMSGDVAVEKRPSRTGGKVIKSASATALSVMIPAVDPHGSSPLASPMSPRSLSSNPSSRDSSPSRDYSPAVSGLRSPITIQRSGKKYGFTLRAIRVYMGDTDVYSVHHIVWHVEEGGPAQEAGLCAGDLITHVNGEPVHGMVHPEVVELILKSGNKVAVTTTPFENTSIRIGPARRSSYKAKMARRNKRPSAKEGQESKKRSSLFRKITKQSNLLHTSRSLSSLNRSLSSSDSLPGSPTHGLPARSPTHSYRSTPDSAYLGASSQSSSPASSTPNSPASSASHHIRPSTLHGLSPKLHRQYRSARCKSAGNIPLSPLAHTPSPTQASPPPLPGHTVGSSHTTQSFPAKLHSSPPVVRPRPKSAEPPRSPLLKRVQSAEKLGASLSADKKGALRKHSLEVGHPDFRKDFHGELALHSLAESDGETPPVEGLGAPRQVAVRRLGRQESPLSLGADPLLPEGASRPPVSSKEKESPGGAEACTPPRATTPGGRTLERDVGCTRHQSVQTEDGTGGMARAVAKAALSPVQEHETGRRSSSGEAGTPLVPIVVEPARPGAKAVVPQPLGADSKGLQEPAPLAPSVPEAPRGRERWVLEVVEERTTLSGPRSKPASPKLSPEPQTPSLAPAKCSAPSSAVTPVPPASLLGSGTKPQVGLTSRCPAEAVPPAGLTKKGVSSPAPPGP
Description: as §1

CDC2L1 = CDC2L1 (Homo sapiens (Human), UniProt P21127)
Description: as §1

DRAK1 = DRAK1 (Homo sapiens (Human), UniProt Q9UEE5)
Description: as §1

ABL1-nonphosphorylated = ABL1-nonphosphorylated (Homo sapiens (Human), UniProt P00519)
ABL1-nonphosphorylated, sequence (P00519 whole entry): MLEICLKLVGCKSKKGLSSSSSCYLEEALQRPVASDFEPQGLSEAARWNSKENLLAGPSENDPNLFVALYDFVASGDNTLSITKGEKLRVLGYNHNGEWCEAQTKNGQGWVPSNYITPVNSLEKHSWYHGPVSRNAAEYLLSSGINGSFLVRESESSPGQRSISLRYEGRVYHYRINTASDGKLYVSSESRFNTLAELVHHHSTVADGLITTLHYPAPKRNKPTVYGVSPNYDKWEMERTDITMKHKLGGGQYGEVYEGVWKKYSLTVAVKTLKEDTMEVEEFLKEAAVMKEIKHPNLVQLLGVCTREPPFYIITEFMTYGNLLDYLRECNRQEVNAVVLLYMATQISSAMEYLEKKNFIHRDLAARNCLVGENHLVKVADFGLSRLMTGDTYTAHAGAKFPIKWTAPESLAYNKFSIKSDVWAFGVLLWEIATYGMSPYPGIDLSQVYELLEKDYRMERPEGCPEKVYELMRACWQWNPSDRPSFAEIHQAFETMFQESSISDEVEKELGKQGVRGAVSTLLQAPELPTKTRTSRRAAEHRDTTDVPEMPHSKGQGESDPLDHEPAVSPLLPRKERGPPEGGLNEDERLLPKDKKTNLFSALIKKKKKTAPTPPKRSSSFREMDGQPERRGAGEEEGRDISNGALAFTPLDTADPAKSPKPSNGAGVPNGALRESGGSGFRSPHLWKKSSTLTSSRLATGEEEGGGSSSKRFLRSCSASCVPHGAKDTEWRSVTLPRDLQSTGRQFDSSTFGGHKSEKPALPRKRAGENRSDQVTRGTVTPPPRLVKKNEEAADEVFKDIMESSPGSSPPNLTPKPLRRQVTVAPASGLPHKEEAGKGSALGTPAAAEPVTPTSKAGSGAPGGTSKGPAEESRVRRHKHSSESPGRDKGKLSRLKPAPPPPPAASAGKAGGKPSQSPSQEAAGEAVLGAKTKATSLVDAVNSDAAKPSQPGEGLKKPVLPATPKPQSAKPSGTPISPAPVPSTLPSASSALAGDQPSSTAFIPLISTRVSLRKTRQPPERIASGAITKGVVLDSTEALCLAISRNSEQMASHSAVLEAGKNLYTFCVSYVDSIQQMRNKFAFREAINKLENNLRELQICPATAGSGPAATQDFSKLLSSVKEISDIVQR
Description: as §1

ULK = ULK (Homo sapiens (Human), UniProt O75385)
Description: as §1

BRK = BRK (Homo sapiens (Human), UniProt Q13882)
Description: as §1

WEE1 = WEE1 (Homo sapiens (Human), UniProt P30291)
Description: as §1

CSNK1G2 = CSNK1G2 (Homo sapiens (Human), UniProt P78368)
Description: as §1

ROCK2 = ROCK2 (Homo sapiens (Human), UniProt O75116)
Description: as §1

MAP3K15 = MAP3K15 (Homo sapiens (Human), UniProt Q6ZN16)
Description: as §1

TBK1 = TBK1 (Homo sapiens (Human), UniProt Q9UHD2)
Description: as §1

PIK3CD = PIK3CD (Homo sapiens (Human), UniProt O00329)
Description: as §1

CTK = CTK (Homo sapiens (Human), UniProt P42679)
CTK, sequence (P42679 whole entry): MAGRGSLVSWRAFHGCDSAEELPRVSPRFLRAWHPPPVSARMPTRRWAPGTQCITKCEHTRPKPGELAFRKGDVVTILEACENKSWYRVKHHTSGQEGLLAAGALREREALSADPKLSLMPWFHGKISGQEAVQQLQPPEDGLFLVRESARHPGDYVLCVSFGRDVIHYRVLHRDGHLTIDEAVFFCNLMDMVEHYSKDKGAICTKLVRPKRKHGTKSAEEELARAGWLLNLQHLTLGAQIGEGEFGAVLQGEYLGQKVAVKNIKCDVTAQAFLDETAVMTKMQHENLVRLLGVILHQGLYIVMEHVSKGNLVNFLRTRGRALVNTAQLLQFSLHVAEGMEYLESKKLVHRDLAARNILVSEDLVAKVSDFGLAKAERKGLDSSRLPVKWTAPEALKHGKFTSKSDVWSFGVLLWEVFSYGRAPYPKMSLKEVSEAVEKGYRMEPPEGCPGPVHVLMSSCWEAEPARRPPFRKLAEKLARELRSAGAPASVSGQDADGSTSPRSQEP
Description: as §1

YANK1 = YANK1 (Homo sapiens (Human), UniProt Q8WU08)
Description: as §1

SRPK1 = SRPK1 (Homo sapiens (Human), UniProt Q96SB4)
Description: as §1

FYN = FYN (Homo sapiens (Human), UniProt P06241)
FYN, sequence (P06241 whole entry): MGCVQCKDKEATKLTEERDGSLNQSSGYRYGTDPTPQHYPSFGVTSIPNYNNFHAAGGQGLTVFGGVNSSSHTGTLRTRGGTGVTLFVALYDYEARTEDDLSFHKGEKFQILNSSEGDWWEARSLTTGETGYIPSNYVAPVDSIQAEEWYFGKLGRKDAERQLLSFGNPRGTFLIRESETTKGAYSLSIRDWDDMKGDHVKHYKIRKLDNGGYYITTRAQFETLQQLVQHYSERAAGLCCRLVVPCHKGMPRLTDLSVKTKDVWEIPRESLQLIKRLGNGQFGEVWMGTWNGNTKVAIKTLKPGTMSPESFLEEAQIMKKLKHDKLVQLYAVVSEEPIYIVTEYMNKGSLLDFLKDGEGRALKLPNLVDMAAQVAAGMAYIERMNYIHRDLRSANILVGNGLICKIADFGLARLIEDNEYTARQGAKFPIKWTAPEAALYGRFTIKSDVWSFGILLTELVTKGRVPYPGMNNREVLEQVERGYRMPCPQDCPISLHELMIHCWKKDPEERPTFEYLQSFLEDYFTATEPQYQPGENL
Description: as §1

ABL2 = ABL2 (Homo sapiens (Human), UniProt P42684)
Description: as §1

MTOR = MTOR (Homo sapiens (Human), UniProt P42345)
Description: as §1

ERK3 = ERK3 (Homo sapiens (Human), UniProt Q16659)
ERK3, sequence (Q16659 whole entry): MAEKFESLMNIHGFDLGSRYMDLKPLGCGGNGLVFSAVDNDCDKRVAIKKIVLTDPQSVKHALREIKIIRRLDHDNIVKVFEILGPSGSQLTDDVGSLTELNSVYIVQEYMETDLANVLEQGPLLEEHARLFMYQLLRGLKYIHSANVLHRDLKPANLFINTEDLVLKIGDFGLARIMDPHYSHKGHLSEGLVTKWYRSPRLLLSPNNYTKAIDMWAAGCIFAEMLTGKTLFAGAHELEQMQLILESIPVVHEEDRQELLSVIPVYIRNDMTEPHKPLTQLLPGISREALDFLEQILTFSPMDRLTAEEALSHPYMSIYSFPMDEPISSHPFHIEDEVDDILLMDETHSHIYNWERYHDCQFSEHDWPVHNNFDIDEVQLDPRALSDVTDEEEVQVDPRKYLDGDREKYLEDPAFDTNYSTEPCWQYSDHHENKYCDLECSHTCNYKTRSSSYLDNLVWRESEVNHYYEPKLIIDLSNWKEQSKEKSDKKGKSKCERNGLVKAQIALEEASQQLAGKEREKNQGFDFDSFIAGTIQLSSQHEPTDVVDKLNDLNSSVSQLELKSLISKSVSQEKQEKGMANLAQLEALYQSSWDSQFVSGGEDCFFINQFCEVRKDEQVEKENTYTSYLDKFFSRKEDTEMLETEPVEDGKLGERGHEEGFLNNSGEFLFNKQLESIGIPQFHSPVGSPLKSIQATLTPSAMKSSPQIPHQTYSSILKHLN
Description: as §1

DDR1 = DDR1 (Homo sapiens (Human), UniProt Q08345)
Description: as §1

NEK4 = NEK4 (Homo sapiens (Human), UniProt P51957)
Description: as §1

MAP4K2 = MAP4K2 (Homo sapiens (Human), UniProt Q12851)
Description: as §1

[1] = molecular target: JAK1 (JH1domain-catalytic) (Homo sapiens (Human), UniProt P23458)
Description: as §1

MLK1 = MLK1 (Homo sapiens (Human), UniProt P80192)
Description: as §1

JNK3 = JNK3 (Homo sapiens (Human), UniProt P53779)
Description: as §1

HIPK3 = HIPK3 (Homo sapiens (Human), UniProt Q9H422)
Description: as §1

PFPK5(P.falciparum) = PFPK5(P.falciparum) (Plasmodium falciparum (isolate 3D7), UniProt P61075)
Description: as §1

EGFR(G719S) = EGFR(G719S) (Homo sapiens (Human), UniProt P00533, G719S)
Description: as §1

LYN = LYN (Homo sapiens (Human), UniProt P07948)
Description: as §1

NEK6 = NEK6 (Homo sapiens (Human), UniProt Q9HC98)
Description: as §1

TESK1 = TESK1 (Homo sapiens (Human), UniProt Q15569)
Description: as §1

MAP4K4 = MAP4K4 (Homo sapiens (Human), UniProt O95819)
Description: as §1

MYO3B = MYO3B (Homo sapiens (Human), UniProt Q8WXR4)
Description: as §1

BMPR2 = BMPR2 (Homo sapiens (Human), UniProt Q13873)
Description: as §1

PRKX = PRKX (Homo sapiens (Human), UniProt P51817)
Description: as §1

CAMK1B = CAMK1B (Homo sapiens (Human), UniProt Q6P2M8)
Description: as §1

Row | Compound | remaining binding at 1 µM (DCAMKL2) | remaining binding at 1 µM (CDK4-cyclinD3) | remaining binding at 1 µM (DAPK3) | remaining binding at 1 µM (MAST1) | remaining binding at 1 µM (CDC2L1) | remaining binding at 1 µM (DRAK1) | remaining binding at 1 µM (ABL1-nonphosphorylated) | remaining binding at 1 µM (ULK) | remaining binding at 1 µM (BRK) | remaining binding at 1 µM (WEE1) | remaining binding at 1 µM (CSNK1G2) | remaining binding at 1 µM (ROCK2) | remaining binding at 1 µM (MAP3K15) | remaining binding at 1 µM (TBK1) | remaining binding at 1 µM (PIK3CD) | remaining binding at 1 µM (CTK) | remaining binding at 1 µM (YANK1) | remaining binding at 1 µM (SRPK1) | remaining binding at 1 µM (FYN) | remaining binding at 1 µM (ABL2) | other results
1 | CCN1CCN(Cc2cc(NC(=O)c3ccc(C)c(-c4ccc5nc(NC(=O)C6CC6)cn5n4)c3)cc(C(F)(F)F)c2)CC1 [Compound I-2, 3-(2-(cyclopropanecarboxamido)imidazo[1,2-b]pyridazin-6-yl)-N-(3-((4-ethylpiperazin-1-yl)methyl)-5-(trifluoromethyl)phenyl)-4-methylbenzamide] | 98% | 41% | 93% | 94% | 44% | 100% | 0% | 89% | 100% | 94% | 92% | 82% | 55% | 75% | 100% | 38% | 93% | 85% | 4.1% | 0.4% | remaining binding at 1 µM (MTOR): 78%; remaining binding at 1 µM (ERK3): 89%; remaining binding at 1 µM (DDR1): 0.05%; remaining binding at 1 µM (NEK4): 28%; remaining binding at 1 µM (MAP4K2): 0.05%; remaining binding at 1 µM [1]: 19%; remaining binding at 1 µM (MLK1): 75%; remaining binding at 1 µM (JNK3): 85%; remaining binding at 1 µM (HIPK3): 56%; remaining binding at 1 µM (PFPK5(P.falciparum)): 91%; remaining binding at 1 µM (EGFR(G719S)): 45%; remaining binding at 1 µM (LYN): 0.55%; remaining binding at 1 µM (NEK6): 100%; remaining binding at 1 µM (TESK1): 100%; remaining binding at 1 µM (MAP4K4): 0.15%; remaining binding at 1 µM (MYO3B): 80%; remaining binding at 1 µM (BMPR2): 100%; remaining binding at 1 µM (PRKX): 100%; remaining binding at 1 µM (CAMK1B): 49%
2 | CCN1CCN(Cc2cc(NC(=O)c3ccc(C)c(-c4ccc5nc(NC(=O)C6CC6)cn5c4)c3)cc(C(F)(F)F)c2)CC1 [Compound I-6, 3-(2-(cyclopropanecarboxamido)imidazo[1,2-a]pyridin-6-yl)-N-(3-((4-ethylpiperazin-1-yl)methyl)-5-(trifluoromethyl)phenyl)-4-methylbenzamide] | 100% | 64% | 100% | 95% | 33% | 94% | 0.1% | 100% | 91% | 100% | 100% | 94% | 95% | 96% | 69% | 31% | 93% | 57% | 3.7% | 0.4% | remaining binding at 1 µM (MTOR): 91%; remaining binding at 1 µM (ERK3): 100%; remaining binding at 1 µM (DDR1): 0.15%; remaining binding at 1 µM (NEK4): 15%; remaining binding at 1 µM (MAP4K2): 0.2%; remaining binding at 1 µM [1]: 20%; remaining binding at 1 µM (MLK1): 94%; remaining binding at 1 µM (JNK3): 93%; remaining binding at 1 µM (HIPK3): 98%; remaining binding at 1 µM (PFPK5(P.falciparum)): 77%; remaining binding at 1 µM (EGFR(G719S)): 35%; remaining binding at 1 µM (LYN): 0.6%; remaining binding at 1 µM (NEK6): 100%; remaining binding at 1 µM (TESK1): 97%; remaining binding at 1 µM (MAP4K4): 0.75%; remaining binding at 1 µM (MYO3B): 49%; remaining binding at 1 µM (BMPR2): 100%; remaining binding at 1 µM (PRKX): 100%; remaining binding at 1 µM (CAMK1B): 97%
